Reference: patent publication US4767720A, “Antidigoxin antibodies” (HSC Research Development Corporation, priority 1985, dated 1988)
Entries after “also recorded” stand apart in the source; their conditions may differ.

Assays:
[1] = system: antibodies generated against periodate-oxidized digoxin-BSA conjugate; type: binding; details: metabolite alone at the actual concentration of the line, actual digoxin 0
Text: A comparison was made between the antiserum of Example 4 and the commercially available antidigoxin serum using FPIA (fluorescence polarization immuno assay) to measure the digoxin concentration for solutions containing known levels of the digoxin metabolites as identified in the following Table 3.

[2] = system: antibodies raised against ozonized digoxin-BSA; type: binding, rabbit; details: for competition for 3H-digoxin binding / cross reaction with the new antibody: 3H-digoxin RIA, FIG. 7a and 7b; for cross-reactivity index: calculated from the molar concentration required to reduce the 3H-digoxin binding by 50%; for Digoxin apparent value measured by [3H]digoxin RIA: metabolite alone at the actual concentration of the line, actual digoxin 0
Experimental: The ^3 H-digoxin radioimmunoassay method was adapted from that previously described in Cerceo E. and Elloso CA (1972) Factors Affecting the Radioimmunoassay of Digoxin, Clin. Chem. 18, 539-542. Briefly, tubes containing 0-30 ng ^3 H-digoxin (3000 dpm) in PBS were incubated at room temperature for 15 mins in the presence of 1/20 diluted antidigoxin serum. Ice cold dextran coated charcoal was added and incubated at 4° C. for 10 mins. This mixture was centrifuged and the ^3 H-digoxin remaining in the supernate was counted in a liquid scintillation spectrometer. Controls in the absence of serum and for non-immune serum were performed in parallel.
The degree of cross reactivity of the digoxin metabolites was monitored using the ^3 H-digoxin radioimmunoassay.

[3] = system: commercial antidigoxin antibodies raised against BSA periodate conjugated digoxin; assay: 125I-digoxin RIA using commercial antidigoxin antibodies (whole serum or affinity purified); type: binding; details: for Concentration Measured by RIA Using Affinity Purified Antibody: antibody affinity purified from the same immune serum; for Concentration Measured by RIA Using whole Serum: commercial antidigoxin antibodies, true concentration of antigen given
Experimental: Antidigoxin antibodies raised against BSA periodate conjugated digoxin were purchased from Antibodies Incorporated (Davis, Calif.) and Wien Laboratories (Succasunna, N.J.). Antidigoxin activity was determined using the ^125 I-digoxin radioimmune assay as previously described. Soldin, S; Papanastasion-Diamand, A; Heyes, J;, Lingwood C. A. and Olley, P. (1984) Are Immunoassays for Digoxin Reliable? Clin. Biochem. 17, 317-320. The immune serum was precipitated with 40% ammonium sulfate. The precipitate was redissolved and dialysed against phosphate buffered saline pH 7.4 (PBS). Antidigoxin antibodies were further purified by immunoaffinity chromatography. Digoxin was covalently linked to agarose by use of a photoactive heterobifunctional crosslinking agent as described in Lingwood, C. A. (1984) Production of Glycolipid Affinity Matrices by Use of Heterobifunctional Crosslinking Agents, J. Lipid Res. 25, 1010-1012. Amino hexyl agarose was treated with 2 mM hydroxysuccinimidyl azidobenzoate in the dark for 1 hour at room temperature. The beads were washed with water and 2 mg ^3 H-digoxin (1 mg/ml enthanol/water 1:1) was added. The beads were rotoevaporated to dryness when the digoxin was absorbed onto the beads. The dry beads were then irradiated for 2 min/1 cm from a Mineralight II UV source with stirring, when the digoxin is covalently attached to the agarose beads. The matrix was washed with 100 column volumes 50% ethanol and 50 column volumes water. The wash fractions were concentrated and unbound ^3 H-digoxin was measured. The amount of digoxin coupled/ml agarose was calculated (0.2 μmoles/ml beads).
The immunoglobulin fraction from 1 ml immune serum was applied and the digoxin column was washed with PBS. Antidigoxin activity was measured using the automated ^125 I-RIA method. […] Specific antibodies were eluted by addition of 10 ml 1M KI followed by 10 ml 1M KSCN. The eluted fractions were dialysed, concentrated vs sucrose, dialysed and used in the RIA.
Cross-reactivity of commercial antidigoxin antibodies towards the digoxin metabolites in which one, two and three sugars have been removed (digoxigenin bisdigitoxoside, monodigitoxoside and […] respectively) was measured. […] Purification of the antidigoxin antibodies by affinity chromatography considerably reduces this cross reactivity such that the metabolites are now recognized on a one to one basis relative to digoxin.

[4] = system: antidigoxin antibody raised against a bovine serum albumin-digoxin conjugate immunogen; details: background statement on prior-art antibodies; cited from earlier work

SMILES	Digoxin apparent value measured by FPIA [1]	competition for 3H-digoxin binding / cross reaction with the new antibody [2]	cross-reactivity index [2]	Digoxin apparent value measured by [3H]digoxin RIA [2]	Concentration Measured by RIA Using Affinity Purified Antibody [3]	Concentration Measured by RIA Using whole Serum [3]	cross-reactivity with the antibodies [4]
C[C@H]1O[C@@H](O[C@H]2[C@@H](O)C[C@H](O[C@H]3[C@@H](O)C[C@H](O[C@H]4CC[C@@]5(C)[C@H](CC[C@@H]6[C@@H]5CC[C@]5(C)[C@@H](C7=CC(=O)OC7)CC[C@]65O)C4)O[C@@H]3C)O[C@@H]2C)C[C@H](O)[C@@H]1O [Digitoxin]	9.6 nmol/L	considerable reduced reactivity	11%	0 nmol/L	–	–	–
C[C@H]1O[C@@H](O[C@H]2[C@@H](O)C[C@H](O[C@H]3CC[C@@]4(C)[C@H](CC[C@@H]5[C@@H]4C[C@@H](O)[C@]4(C)[C@@H](C6=CC(=O)OC6)CC[C@]54O)C3)O[C@@H]2C)C[C@H](O)[C@@H]1O [Digoxigenin bisdigitoxide, digoxigenin bisdigitoxide]	6.05 nmol/L	–	14.6%	0.8 nmol/L	6.3 nmol/L	25.2 nmol/L	react with the antibodies
C[C@H]1O[C@@H](O[C@H]2CC[C@@]3(C)[C@H](CC[C@@H]4[C@@H]3C[C@@H](O)[C@]3(C)[C@@H](C5=CC(=O)OC5)CC[C@]43O)C2)C[C@H](O)[C@@H]1O [Digoxigenin monodigitoxide]	10 nmol/L	–	3.7%	0.7 nmol/L	5.0 nmol/L	24.3 nmol/L	react with the antibodies
C[C@]12CC[C@H](O)C[C@H]1CC[C@@H]1[C@@H]2C[C@@H](O)[C@]2(C)[C@@H](C3=CC(=O)OC3)CC[C@]12O [Digoxigenin]	13.8 nmol/L	ineffective antigen	–	0 nmol/L	6.9 nmol/L	25.2 nmol/L	react with the antibodies
C[C@]12CC[C@H](O)C[C@H]1CC[C@@H]1[C@@H]2C[C@@H](O)[C@]2(C)[C@@H](C3COC(=O)C3)CC[C@]12O (stereo partly shown) [Dihydrodigoxigenin]	–	–	–	–	0.8 nmol/L	0.8 nmol/L	little or no cross-reactivity
C[C@@H](O)[C@@H](O)[C@@H](O)CC=O [digitoxose]	–	does not compete for digoxin binding; also recorded: does not cross react at all	–	–	–	–	–
CC1OC(OC2C(O)CC(OC3C(O)CC(OC4CCC5(C)C(CCC6C5CC(O)C5(C)C(C7=CC(=O)OC7)CCC65O)C4)OC3C)OC2C)CC(O)C1O (stereo not shown) [digoxin, Digoxin]	–	effectively competed out	–	–	–	–	–
CC1OC(OC2C(O)CC(OC3C(O)CC(OC4CCC5(C)C(CCC6C5CC(O)C5(C)C(C7COC(=O)C7)CCC65O)C4)OC3C)OC2C)CC(O)C1O (stereo not shown) [dihydrodigoxin]	–	–	–	–	–	–	little or no cross-reactivity
